Laboratory results reported in patent US20140039056A1, “BROMFENAC ORGANIC SALTS AND PREPARATION METHOD, COMPOSITION AND USE THEREOF” (SHENYANG XINGQI PHARMACEUTICAL CO., LTD., priority 2010, published 2014).
Structures can show the parent of a compound that is named as a salt.

What was measured:
[1] = Tissue distribution test (muscle tissue under skin after application to the back); conditions: rats; for Concentration in muscle tissue / concentration at 0 h / concentration at 2 h / concentration at 4 h / concentration at 6 h / concentration at 8 h / concentration at 10 h: n = 3; for time at which distribution in tissue reaches maximum values (peak concentrations): muscle tissue under skin; for concentration distributed in tissue compared with bromfenac sodium: muscle tissue; for concentration at 0 h / concentration at 2 h / concentration at 4 h / concentration at 6 h / concentration at 8 h / concentration at 10 h: rat, 1 g preparation, Concentration in muscle tissue
Description: Preparation of bromfenac salt solutions: 0.25 g samples of bromfenac sodium, bromfenac diethylamine salt as prepared in Example 1 and bromfenac trometamol salt as prepared in Example 2 were precisely weighed separately, placed in 25 ml volumetric flasks respectively, metered volume to obtain stock solutions for standby use.
Chromatography conditions: detector: ultraviolet absorption detector (wavelength: 266 nm). Chromatography column: octadecyl silica gel column (4.6 mm×150 mm, 5 μm). Mobile phase: precisely weighed ammonium acetate 3.85 g, added with water to the metered volume of 1000 mL. 700 mL of this solution was taken and added with 300 mL acetonitrile. Flow rate: 1.0 mL/min.
Plotting standard curves: 200 μl samples of blank tissue were taken, separately added with 50 μl of series standard solutions of bromfenac sodium, bromfenac diethylamine salt and bromfenac trometamol salt separately, added with 50 μl of internal standard respectively, to form sample solutions with equivalent tissue concentrations of bromfenac sodium, bromfenac diethylamine salt and bromfenac trometamol salt as 50, 100, 250, 500, 1000, 5000, 10000 ng/ml, which were separately weighed precisely to take 20 μl and injected into chromatography and separately assayed.
1) On the test day, removed short hair on the back of rats were with a electric hair clipper to expose surface layer of skin, while trying to avoid breaking skin during hair cutting, and then washed unhairing region with a large quantity of water;
2) anesthetized rats using 10% chloral hydrate in anesthetic agent dose of 3.5 ml/kg;
3) randomly divided the rats into 3 groups, 15 rats per group. On the unhairing region of back, the rats of 3 groups were separately administered with 1 g of bromfenac sodium, bromfenac diethylamine and Bromfenac trometamol preparations, and the administration regions were covered with freshness-keeping plastic film;
4) executed rats before administration (0 hours) and at 2 hours, 4 hours, 6 hours, 8 hours, 10 hours after administration, took muscle tissues under skin of administration sites;
5) simply washed muscle tissues with physiological saline, then absorbed excessive water with filter paper;
6) precisely weighed 1 g of muscle tissue, cut into pieces, homogenizing with 3 ml of physiological saline in electric grinding mill. A homogeneous muscle tissue homogenate was obtained after muscle tissue was ground completely;
7) took […] of tissue sample, added with 50 μL of an internal standard solution, mixed homogeneously, added with 1 mL of methanol, mixed by vortex for 1 min, centrifuged for 5 min (3500 rpm), separated and placed upper layer organic phase into another tube, blow-dried with 37° C. air, dissolved the residue by adding 100 μL of mobile phase, mixed by vortex, and took 20 μL to perform HPLC analysis.

[2] = tested on: swelling of auricle caused by xylene in mice; assay: Test of effects on swelling of auricle caused by xylene in mice; type: in vivo; conditions: for effect on swelling of auricle caused by xylene in mice: in words; for Swelling degree: weight difference between two ears, lavage 50 mL/Kg of 1 g/100 ml solution twice per day for 7 days, mice
Description: Test grouping: 40 mice, bodyweight 20±2 g, randomly divided into 4 groups, 10 mice per group, i.e., physiological control group, bromfenac sodium group, bromfenac diethylamine salt group, and bromfenac trometamol salt group.
Test method: the mice of each test group were administered with physiological saline, solution of bromfenac sodium, solution of bromfenac diethylamine salt and solution of bromfenac trometamol salt, twice per day via lavage in lavage dose of 50 mL/Kg, for consecutive 7 days, 1 h after the last administration, xylene in dose of 0.05 mL/mouse was coated on right ears of mice of each test group, while their left ears were used as control, the mice were executed after 30 min, ear parts that were at the same place and had the same area were cut from both ears by a puncher with a diameter of 6 mm, and weighed with ten thousandth electronic analytical balance, and the weight difference between two ears was used as index of swelling.

[3] = tested on: swelling of foot caused by egg white in rats; assay: Test of effects on swelling of foot caused by egg white in rats; type: in vivo; conditions: for effect on voix pedis swelling caused by egg white in rats: within 0.5 hours to 6 hours, versus physiological saline control group, in words
Description: Test grouping: 40 rats, bodyweight 200-220 g, randomly divided into 4 groups, 10 rats per group, i.e., physiological saline control group, bromfenac sodium group, bromfenac diethylamine salt group, and bromfenac trometamol salt group.
The rats of each test group were administered with physiological saline, solution of bromfenac sodium, solution of bromfenac diethylamine salt and solution of bromfenac trometamol salt, twice per day via lavage in lavage dose of 50 mL/Kg, for consecutive 7 days, before the last administration, volumes of voix pedis of normal right and left hindfeet of each rat were measured, and the measurement was performed by blood capillary volume method. The linedrawing position at ankle joint of rat was adjusted so that the volumes of voix pedis of right and left hindfeet were about 1 mL, 0.5 hours after the last administration, 0.1 mL of newly prepared 10% egg white liquid was subcutaneously injected to voix pedis of right and left hindfeet of rats respectively, and the volumes of voix pedis of right and left hindfeet of rats were measured again at 0.5, 1, 2, 4, 6 hours after injection of egg white, and swelling rate was calculated (voix pedis swelling rate=voix pedis volume at different time after injection of egg white−voix pedis volume at the same side before injection of egg white/voix pedis volume at the same side before injection of egg white), and the results were shown in Table 5.

[4] = Chemical stability in solid state (accelerated stability test at 60° C.); type: physicochemical; conditions: for change of content in accelerated test at 60° C.: solid state, in words
Description: HPLC Analysis Conditions:
Detector: ultraviolet absorption detector (wavelength: 266 nm).
Chromatography column: octadecyl silica gel column (4.0 mm×150 mm, 5 um).
Mobile phase: 3.85 g of ammonium acetate was precisely weighed, added with water to reach the metered volume of 1000 mL.

[5] = Chemical stability in aqueous state (25° C., dark); type: physicochemical; conditions: for degradation products and content changes in aqueous solution: dark conditions, in words
[6] = 0.5 hours after injection of egg white
[7] = 0.5 hours after injection of egg white, lavage 50 mL/Kg twice per day for 7 days
[8] = 1.0 hours after injection of egg white
[9] = 2.0 hours after injection of egg white
[10] = 4.0 hours after injection of egg white
[11] = 6.0 hours after injection of egg white
[12] = Normal rats (before egg white), lavage 50 mL/Kg twice per day for 7 days

Row | Structure (SMILES) | time at which distribution in tissue reaches maximum values (peak concentrations) [1] [h] | effect on swelling of auricle caused by xylene in mice [2] | Swelling degree [2] [mg] | voix pedis swelling rate [3, 6] | voix pedis volume [3, 7] [mL] | voix pedis swelling rate [3, 8] | voix pedis volume [3, 8] [mL] | voix pedis swelling rate [3, 9] | voix pedis volume [3, 9] [mL] | voix pedis swelling rate [3, 10] | voix pedis volume [3, 10] [mL] | voix pedis swelling rate [3, 11] | voix pedis volume [3, 11] [mL] | voix pedis swelling rate ([3]; Normal rats) | voix pedis volume [3, 12] [mL] | effect on voix pedis swelling caused by egg white in rats [3] | content (HPLC), solid state ([4]; 60° C., 2 weeks) [%] | content (HPLC), solid state ([4]; 60° C., 3 weeks) [%] | change of content in accelerated test at 60° C. [4] | content (HPLC), aqueous state ([5]; 25° C., dark, 2 weeks) [%] | further results
1 | Nc1c(CC(=O)O)cccc1C(=O)c1ccc(Br)cc1 [Bromfenac diethylamine salt, bromfenac diethylamine salt] | 2 | significant inhibition effects | 5.37 ± 0.50 | (0.65 ± 0.08) | 1.61 ± 0.08 | (0.58 ± 0.08) | 1.55 ± 0.09 | (0.41 ± 0.08) | 1.38 ± 0.06 | (0.23 ± 0.05) | 1.21 ± 0.06 | (0.08 ± 0.06) | 1.06 ± 0.08 | (0.65 ± 0.08) | 1.61 ± 0.08 | significantly inhibit | 99.3 | 99.2 | no significant substantial change | 99.4 | Concentration in muscle tissue ([1]; 0 hours (before administration)): 0 ng/mL; Concentration in muscle tissue ([1]; 2 hours after administration of 1 g preparation on back skin): 1092.1 ng/mL; Concentration in muscle tissue ([1]; 4 hours after administration of 1 g preparation on back skin): 2657.6 ng/mL; Concentration in muscle tissue ([1]; 6 hours after administration of 1 g preparation on back skin): 1803.7 ng/mL; Concentration in muscle tissue ([1]; 8 hours after administration of 1 g preparation on back skin): 1108.3 ng/mL; Concentration in muscle tissue ([1]; 10 hours after administration of 1 g preparation on back skin): 262.4 ng/mL; concentration distributed in tissue compared with bromfenac sodium [1]: significantly greater; content (HPLC), solid state ([4]; 60° C., 1 week): 99.5%; content (HPLC), solid state ([4]; Initial): 99.5%; content (HPLC), aqueous state ([5]; 25° C., dark, 1 week): 99.5%; content (HPLC), aqueous state ([5]; 25° C., dark, 3 weeks): 99.2%; content (HPLC), aqueous state ([5]; Initial): 99.5%; degradation products and content changes in aqueous solution [5]: not observed
2 | Nc1c(CC(=O)[O-])cccc1C(=O)c1ccc(Br)cc1.[Na+] [Bromfenac sodium, 2-amino-3-(4-bromobenzoyl)phenylacetic acid sodium salt sesquialter hydrate, reference compound] | 2 | significant inhibition effects | 5.45 ± 0.36 | (0.58 ± 0.06) | 1.56 ± 0.11 | (0.53 ± 0.07) | 1.51 ± 0.10 | (0.40 ± 0.09) | 1.39 ± 0.11 | (0.22 ± 0.08) | 1.20 ± 0.10 | (0.06 ± 0.05) | 1.04 ± 0.06 | (0.58 ± 0.06) | 1.51 ± 0.11 | significantly inhibit | 99.3 | 99.1 | no significant substantial change | 99.4 | concentration at 0 h ([1]; in vivo, 0 hours (before administration)): 0 ng/mL; concentration at 2 h ([1]; in vivo, 2 hours after administration of 1 g preparation on back skin): 238 ng/mL; concentration at 4 h ([1]; in vivo, 4 hours after administration of 1 g preparation on back skin): 693 ng/mL; concentration at 6 h ([1]; in vivo, 6 hours after administration of 1 g preparation on back skin): 509 ng/mL; concentration at 8 h ([1]; in vivo, 8 hours after administration of 1 g preparation on back skin): 313 ng/mL; concentration at 10 h ([1]; in vivo, 10 hours after administration of 1 g preparation on back skin): 130 ng/mL; content (HPLC), solid state ([4]; 60° C., 1 week): 99.5%; content (HPLC), solid state ([4]; Initial): 99.6%; content (HPLC), aqueous state ([5]; 25° C., dark, 1 week): 99.5%; content (HPLC), aqueous state ([5]; 25° C., dark, 3 weeks): 99.1%; content (HPLC), aqueous state ([5]; Initial): 99.6%; degradation products and content changes in aqueous solution [5]: not observed
3 | Nc1c(CC(=O)O)cccc1C(=O)c1ccc(Br)cc1 [Bromfenac trometamol salt, bromfenac trometamol salt] | 2 | significant inhibition effects | 5.41 ± 0.47 | (0.63 ± 0.09) | 1.59 ± 0.09 | (0.57 ± 0.10) | 1.54 ± 0.11 | (0.44 ± 0.13) | 1.41 ± 0.13 | (0.20 ± 0.10) | 1.24 ± 0.10 | (0.10 ± 0.07) | 1.08 ± 0.08 | (0.63 ± 0.09) | 1.59 ± 0.09 | significantly inhibit | 99.4 | 99.2 | no significant substantial change | 99.3 | concentration distributed in tissue compared with bromfenac sodium [1]: significantly greater; concentration at 0 h ([1]; muscle tissue under skin of administration site, topical, 0 hours (before administration)): 0 ng/mL; concentration at 2 h ([1]; muscle tissue under skin of administration site, topical, 2 hours after administration of 1 g preparation on back skin): 852 ng/mL; concentration at 4 h ([1]; muscle tissue under skin of administration site, topical, 4 hours after administration of 1 g preparation on back skin): 1490 ng/mL; concentration at 6 h ([1]; muscle tissue under skin of administration site, topical, 6 hours after administration of 1 g preparation on back skin): 1100 ng/mL; concentration at 8 h ([1]; muscle tissue under skin of administration site, topical, 8 hours after administration of 1 g preparation on back skin): 790 ng/mL; concentration at 10 h ([1]; muscle tissue under skin of administration site, topical, 10 hours after administration of 1 g preparation on back skin): 201 ng/mL; content (HPLC), aqueous state ([5]; 25° C., dark, 3 weeks): 99.1%; degradation products and content changes in aqueous solution [5]: not observed
